In publication PMC8921294, “Inhibition of mitochondrial LonP1 protease by allosteric blockade of ATP binding and hydrolysis via CDDO and its derivatives” (The Journal of Biological Chemistry, 2022):

Legend:
[1] = tested on: HeLa ρ^0 cells; experiment: Cytotoxicity/apoptosis in HeLa ρ^0 cells (cleaved PARP, procaspase 3 immunoblot); assay type: cell-based, human; conditions: 7 h, Fig. 4D
Description: HeLa cells devoid of mitochondrial DNA (HeLa ρ^0) and LCL cells were generated as described previously ([50]). DMEM, RPMI, and fetal bovine serum were purchased from Sigma. All cells were grown with 5% CO2 at 37 °C. LCL cells were cultured in RPMI supplemented with 15% FBS. HeLa Rho 0 cells were cultured in high glucose DMEM (25 mM) (Sigma) supplemented with sodium pyruvate ([…]) and uridine ([…]). CDDO-Me was purchased from Cayman chemicals, and CDDO-AH was synthesized as described previously ([20]). HEK293 cells plated in 60 mm dishes at a confluency of 60 to 70% were transfected with Control or 3′UTR LonP1 siRNA using Lipofectamine 2000 (Invitrogen) and reduced serum OPTI MEM (Sigma) as described in the manufacturer’s protocol to knockdown LonP1, whereas adenoviral transduction was employed to overexpress LonP1. CDDO-Me and CDDO-anhydride were dissolved in DMSO and serially diluted in the respective complete medium and added to HeLa ρ^0 cells and were treated for 7 or 24 h.
Cells were harvested, centrifuged, and washed with PBS and proteins were extracted by adding the lysis buffer (50 mM Tris, [pH 7.5], 300 mM NaCl, and 0.5% Triton X-100) containing 2X Halt phosphatase and protease cocktail inhibitor (Thermo Scientific) for 20 min on ice. After centrifugation at 14,000 rpm for 15 min at 4 °C, the supernatant was collected and estimated for protein by Bradford’s method. […]

[2] = tested on: T1, 26S proteasome ATPase; experiment: Endpoint ATPase assay, purified 26S proteasome; assay type: biochemical, human; conditions: 26S proteasome 3 nM, Fig. 4A
T1 construct: purified from human embryonic kidney cells (HEK293); purchased Boston Biochem Inc.-R&D Systems E-365; host or cells: HEK293
Source text: CDDO and CDDO-Methyl (CDDO-Me) were purchased from Cayman Chemical, CDDO-Imidazole (CDDO-Im) was purchased from Tocris. CDDO-anhydride ([20]) and TP-82 ([71]) were synthesized as reported. Other inhibitors in this study were purchased commercially: MG262 (Boston Biochem), bortezomib (LC Labs) and enoxolone (Cayman Chemical). Antibodies recognizing the following antigens were employed in this study: LonP1 (Proteintech, cat. 15440-1-AP), p53 (Calbiochem, cat. 0P43, lot # D00086815), cleaved PARP (Asp214) (BD Biosciences, cat. 552596), procaspase-3 monoclonal antibody (Transduction Laboratories, cat. C31720), actin (Santa Cruz, cat. sc-1615, lot # F0408), heme oxygenase 1 (Santa Cruz, cat. sc-136960, lot # B1516), TFAM kindly provided by Daniel Bogenhagen (Stony Brook University). Human 26S and 20S proteasome purified from human embryonic kidney cells (HEK293) were purchased commercially (Boston Biochem Inc.-R&D Systems, cat. E-365, lot # 35730210 and cat. E-360, lot # 16918510, respectively).
ADP-Glo (Promega) assays were performed according to the manufacturer's protocols. […] Assay reagents were used to quench further ATPase activity and generate luminescence signals proportional to the concentration of ADP formed. Background (no enzyme control) luminescence values were subtracted, and resultant values were reported as a percentage of the no drug control (100%). […]

[3] = molecular target: T2, LonP1 F547A (Homo sapiens, UniProt P36776, F547A); experiment: Endpoint ATPase assay, LonP1 F547A; assay type: biochemical
T2 construct: hexa-histidine (N); made in house; host or cells: Rosetta 2 E. coli
T2 sequence (P36776 68-959 F547A): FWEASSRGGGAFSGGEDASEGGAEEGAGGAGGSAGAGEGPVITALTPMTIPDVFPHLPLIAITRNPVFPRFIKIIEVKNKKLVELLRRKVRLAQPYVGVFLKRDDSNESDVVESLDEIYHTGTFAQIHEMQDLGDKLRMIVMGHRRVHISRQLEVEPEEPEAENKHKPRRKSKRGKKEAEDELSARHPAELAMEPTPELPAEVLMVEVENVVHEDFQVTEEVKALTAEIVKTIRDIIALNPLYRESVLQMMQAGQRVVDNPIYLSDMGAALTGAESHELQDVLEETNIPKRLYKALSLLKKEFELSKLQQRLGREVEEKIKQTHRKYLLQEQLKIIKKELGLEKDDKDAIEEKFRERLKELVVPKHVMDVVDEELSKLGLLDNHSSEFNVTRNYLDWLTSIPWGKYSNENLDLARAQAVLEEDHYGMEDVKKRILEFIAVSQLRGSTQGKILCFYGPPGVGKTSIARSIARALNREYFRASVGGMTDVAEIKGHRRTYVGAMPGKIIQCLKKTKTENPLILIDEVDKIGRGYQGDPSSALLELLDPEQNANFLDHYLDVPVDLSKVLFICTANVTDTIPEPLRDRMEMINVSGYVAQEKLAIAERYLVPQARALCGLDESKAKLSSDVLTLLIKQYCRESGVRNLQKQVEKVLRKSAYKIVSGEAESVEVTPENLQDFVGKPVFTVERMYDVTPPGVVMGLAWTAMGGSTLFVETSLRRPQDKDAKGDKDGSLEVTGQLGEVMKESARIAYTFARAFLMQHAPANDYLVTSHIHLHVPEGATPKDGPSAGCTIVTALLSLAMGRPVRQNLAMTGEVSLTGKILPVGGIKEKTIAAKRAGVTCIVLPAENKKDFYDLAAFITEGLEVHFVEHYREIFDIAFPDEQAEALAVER
Description: Human mitochondrial LonP1 and mutants lacking the predicted mitochondrial targeting sequence were fused to an N-terminal hexa-histidine affinity tag, expressed in Rosetta 2 E. Coli, and purified using a nickel agarose column as previously described ([72]) and protein concentration and buffer exchange carried out using Amicon Ultra centrifugal filtration. LonP1 mutant constructs were obtained from the PCR-based QuikChange Site-Directed Mutagenesis Kit.
ADP-Glo (Promega) assays were performed according to the manufacturer's protocols. Purified wild-type or mutant LonP1 (400 nM monomer), the 26S proteasome (3 nM), or no enzyme controls were preincubated in 96-well plates (60 min, 25 °C) with ten different concentrations of CDDO and its derivatives, TP-82, enoxolone (5 μM) or DMSO vehicle control in buffer (40 mM Tris-HCl (pH 7.5), 20 mM MgCl2, 0.1 mg/ml BSA and 5% DMSO). The 26S and 20S proteasome were also assayed at 0, 0.75, 1.5, 3, 6, and 12 nM in the absence of CDDO derivatives. […] Assay reagents were used to quench further ATPase activity and generate luminescence signals proportional to the concentration of ADP formed. Background (no enzyme control) luminescence values were subtracted, and resultant values were reported as a percentage of the no drug control (100%). […]

CC1(C)CC[C@]2(C(=O)OC(=O)[C@]34CCC(C)(C)C[C@H]3[C@H]3C(=O)C=C5[C@@]6(C)C=C(C#N)C(=O)C(C)(C)[C@@H]6CC[C@@]5(C)[C@]3(C)CC4)CC[C@]3(C)[C@H](C(=O)C=C4[C@@]5(C)C=C(C#N)C(=O)C(C)(C)[C@@H]5CC[C@]43C)[C@@H]2C1 [CDDO-anhydride]
Concentration up to which no change in procaspase 3 levels was observed [1]: up to 5 μM

CC1(C)CC[C@]2(C(=O)O)CC[C@]3(C)[C@H](C(=O)C=C4[C@@]5(C)C=C(C#N)C(=O)C(C)(C)[C@@H]5CC[C@]43C)[C@@H]2C1 [CDDO, 2-cyano-3,12-dioxooleana-1,9(11)-dien-28-oic acid]
Inhibition of ATP hydrolysis by the 26S proteasome [2]: failed to inhibit | Fold increase in inhibition compared with WT [3]: 2.4 | IC50 ([3]; end-point ATPase assay, read-out: CDDO IC50): 5.9 ± 0.6 µM
